What was measured:
[1] = system: human primary visual cortex (V1); assay: fMRI BOLD study with alternating red and blue photic stimulation after oral d-amphetamine or placebo
visual cortex = conditions: photic stimulation paradigm, humans; cited from earlier work

SMILES	Mean % BOLD signal change (all trials), V1, blue light stimulation ([1]; blue light 470 nm, 0.12 lux, 8 Hz, right and left V1 1x4 ROI, 2.5 mg d-amphetamine sulfate oral, N = 13) [%]	mean BOLD signal change higher in drug than in placebo condition, blue light ([1]; blue light, drug 2.04% versus placebo 1.60%, all trials) [%]	effect of time following drug administration on BOLD signal response to blue light ([1]; linear regression, 5 trials from about 18 min post-drug, Z=-2.471, P=0.013, decreasing BOLD signal over time)	effect of time following drug administration on BOLD signal response to red light ([1]; linear regression, 5 trials, Z=-0.470, P=0.638)	overall BOLD response to red and blue light ([1]; low dose (2.5 mg) d-amphetamine versus placebo)	Mean % BOLD signal change (all trials), V1, red light stimulation ([1]; red light 660 nm, 0.12 lux, 8 Hz, right and left V1 1x4 ROI, 2.5 mg d-amphetamine sulfate oral, N = 13) [%]	mean BOLD signal change higher in drug than in placebo condition, red light ([1]; red light, drug 1.24% versus placebo 0.95%, all trials) [%]	effect on BOLD signal / photic activation in visual cortex (visual cortex)
C[C@H](N)Cc1ccccc1.C[C@H](N)Cc1ccccc1.O=S(=O)(O)O [d-amphetamine, d-amphetamine sulfate]	2.04	28	significant effect of time	no significant effect of drug over time	enhanced	1.24	30	
CCO [ethanol]								inhibits photic activation

— patent US6630127B2, “Method for assessing cortical response to blue light” (The McLean Hospital Corporation, priority 2000, dated 2003)
